US20030059436A1, “Band 3 antigenic peptides, malaria polypeptides and uses thereof” (priority 2001, published 2003)
Entries after “also recorded” stand apart in the source; their conditions may differ. Ends that are not written are not given here. * marks the point of attachment. Biotin = O=C1N[C@H]2[C@H](CS[C@H]2CCCCC(=O)*)N1

How the values were obtained:
[1] = tested on: P. falciparum (3D7 strain) invasion of human RBCs; experiment: Invasion inhibition assay by 3H-hypoxanthine incorporation method; assay type: cell-based, Plasmodium falciparum; settings: for inhibition of invasion, 3H-hypoxanthine uptake assay: 400 μM peptide, vs other Band 3 peptides, no peptide and unrelated peptide; for IC50: 3H-hypoxanthine incorporation method, mean of three experiments±standard error, read-out: IC50 (50% inhibition in the parasite invasion of RBCs)
Method: (§1) FIG. 2 depicts the inhibition of P. falciparum invasion into RBCs by human Band 3 peptides. […] Ectodomains are shown as boxes in the three models. (i) Overlapping 12 to 20-residue peptides shown in solid bars were prepared according to the putative ectodomain boundaries. (ii) Casey model (Fujinaga, J., et al., J Biol Chem 274:6626-6633, 1999). (iii) Reithmeier model (Popov, M., et al., J Biol Chem 272:18325-18332, 1997). (iv) Sherman model (Crandall, I., et al., Parasitology 108:257-267, 1994). […] Artemisinin (25 μM) and no peptide samples were positive and negative controls, respectively. FIG. 2C is a bar graph depicting of invasion inhibition assay by ^3H-hypoxanthine incorporation method. Effects of Band 3 peptides relative to the control sample (no peptide) are shown. Artemisinin (50 μM) and unrelated peptide derived from dematin were used as positive and negative control, respectively. FIG. 2D is a bar graph that depicts results of a growth inhibition assay by ^3H-hypoxanthine incorporation method. Effects of Band 3 peptides relative to the control sample (no peptide) are shown. In all inhibition assays, mean parasitemia from three experiments was calculated with standard error. DMSO background was corrected when necessary. Student's t test was used to compare with the control (no peptide). FIG. 2E is a table providing a summary of net charge and pI for Band 3 peptides.
(§2) To investigate the possible role of Band 3 as a host receptor in P. falciparum invasion into RBCs, we employed a peptide scanning strategy based on recent topology models of human erythroid Band 3 (FIG. 2A). Synthetic peptides were derived from the putative ectodomains of human RBC Band 3, and their ability to inhibit the P. falciparum (3D7 strain) invasion of human RBCs in culture was tested using both visual counting (Schlichtherle, M., et al., Methods in Malaria Research 2000) and ^3H-hypoxanthine incorporation (Chulay, J. D., et al., Exp Parasitol 55:138-146, 1983) methods. […] Inhibition by these four Band 3 peptides was concentration dependent (50, 200, 500, and 1000 μM peptides, data not shown).
The IC50 values for peptides 5A and 5B could not be estimated because a saturable peptide concentration could not be reached with a low DMSO (≦1%) concentration. It is noteworthy that our peptides 5A, 5B, 5C, and 6A were designed by randomly dividing the two ectodomains of Band 3, and thus these peptides may not necessarily represent Band 3 amino acid compositions having the best inhibitory property. […] These findings are consistent with the view that Band 3 functions as an important receptor in the parasite invasion of RBCs.

[2] = tested on: P. falciparum intraerythrocytic growth; experiment: Growth inhibition assay by 3H-hypoxanthine incorporation method; assay type: cell-based, Plasmodium falciparum; settings: 400 μM peptide; vs no peptide control
Method: as §1, §2

[3] = biological target: P. falciparum (3D7 strain) merozoite proteins (approximate molecular masses 175, 150, 125, 52, 48, 42, and 35 kDa); experiment: cell-based or functional assay
[4] = tested on: P. falciparum (3D7 strain) invasion of human RBCs; experiment: Invasion inhibition assay by visual counting method; assay type: cell-based, Plasmodium falciparum; settings: for inhibition of invasion, visual counting assay: 500 μM peptide, ring stage parasites in Giemsa-stained thin smears, vs other Band 3 peptides and no peptide control; for inhibition of the invasion of Plasmodium falciparum malaria parasite into human erythrocytes in vitro: peptide scanning experiment, compared to control sample
Method: as §1
Plasmodium parasite cultures were maintained at 37° C. as described by Klotz, F. W., et. al., J Exp Med 165:1713-1718, 1987. To determine infection in RBCs, rings were counted from RBCs in Geimsa-stained thin smears.
as §2

[5] = tested on: P. falciparum (3D7 strain) merozoite proteins; experiment: Blot overlay assay, merozoite proteins; assay type: binding, Plasmodium falciparum; settings: biotinylated peptides each 400 μM
Method: (§3) Naturally released P. falciparum (3D7 strain) merozoites isolated as described (Mrema, J. E., et al., Exp Parasitol 54:285-295, 1982) and human RBC ghosts prepared as described (Dodge, J. T., et al., Arch Biochem Biophys 100:119-130, 1963) were subjected to SDS-PAGE. Proteins transferred onto nitrocellulose membrane were blocked overnight with 10% milk, 2% BSA, TBST (0.05%) at 4° C. After washing (4×) in TBST, the blot was incubated with biotinylated Band 3 peptides (each 400 μM) in TBST (0.025%), 10 mM phosphate buffer (pH 8.0), 60 mM KCl for 4 h at RT. After extensive washing, the blot was incubated with neutravidin-linked horseradish peroxidase (1:21,000, Pierce Chemical Co., Rockford, Ill.) in TBST (0.05%) with 2% BSA for 5-6 h at RT. After washing the blot with TBST (5×) and TBS (2×), bound peptides were visualized by the ECL method (Pierce Chemical Co.).
(§4) A binding study was carried out between the synthetic Band 3 peptides and merozoite proteins to understand the mechanism by which Band 3 peptides 5B, 5C, and 6A inhibit the parasite invasion of RBCs. P. falciparum merozoites essentially free of contaminating RBC membrane components were isolated (FIG. 3A), and total merozoite proteins were separated by SDS-PAGE (FIG. 3B). […] This was confirmed by Western blot using anti-spectrin and anti-Band 3 antibodies (not shown). […] Approximate molecular masses of these merozoite proteins are 175, 150, 125, 52, 48, 42, and 35 kDa (shown by arrowheads).

GST-MSP138 = experiment: Solution-binding assay, GST-MSP138 on beads; set-up: species or system P. falciparum (FCB1 strain)
Excerpt: MSP138 (SEQ ID NO:33), MSP142 (SEQ ID NO:34), and MSP119 (SEQ ID NO:35) genes were amplified from a P. falciparum (FCB1 strain) cDNA library (J. B. Dame) by PCR using the following primers: 5′-[…] (SEQ ID NO: 14, MSP138, sense, 3121-3133, Xhol), 5′-[…] (SEQ ID NO:15, MSP138, antisense, 4200-4193, NotI), 5′-[…] (SEQ ID NO:16, MSP142, sense, 4201-4218, XhoI), 5′-[…] (SEQ ID NO:17, MSP142, antisense, 5334-5321 NotI), 5′-[…]: (SEQ ID NO:18, MSP119, sense, 4993-5009 BamHI), 5′-[…] (SEQ ID NO:19, MSP119, antisense, 5334-5318, EcoRI). Similar cDNA libraries as well as CDNA pools are available to the public from MR4, ATCC (www.malaria.atcc.org).
Primers: 5′-[…] […] (SEQ ID NO:26, 6AB, antisense, 2640-2620, EcoRI).

human RBC ghost proteins = experiment: Blot overlay assay, RBC ghost proteins; assay type: binding; settings: biotinylated peptides each 400 μM
Method: as §3, §4

[6] = biological target: T1, SV40 large T-antigen fused to GAL4 AD (pGADT7 vector), two-hybrid control (UniProt P03070 86-708); experiment: yeast two-hybrid assay
T1 construct: Kit control; also called pGADT7-T
T1 sequence (P03070 86-708 limits assumed): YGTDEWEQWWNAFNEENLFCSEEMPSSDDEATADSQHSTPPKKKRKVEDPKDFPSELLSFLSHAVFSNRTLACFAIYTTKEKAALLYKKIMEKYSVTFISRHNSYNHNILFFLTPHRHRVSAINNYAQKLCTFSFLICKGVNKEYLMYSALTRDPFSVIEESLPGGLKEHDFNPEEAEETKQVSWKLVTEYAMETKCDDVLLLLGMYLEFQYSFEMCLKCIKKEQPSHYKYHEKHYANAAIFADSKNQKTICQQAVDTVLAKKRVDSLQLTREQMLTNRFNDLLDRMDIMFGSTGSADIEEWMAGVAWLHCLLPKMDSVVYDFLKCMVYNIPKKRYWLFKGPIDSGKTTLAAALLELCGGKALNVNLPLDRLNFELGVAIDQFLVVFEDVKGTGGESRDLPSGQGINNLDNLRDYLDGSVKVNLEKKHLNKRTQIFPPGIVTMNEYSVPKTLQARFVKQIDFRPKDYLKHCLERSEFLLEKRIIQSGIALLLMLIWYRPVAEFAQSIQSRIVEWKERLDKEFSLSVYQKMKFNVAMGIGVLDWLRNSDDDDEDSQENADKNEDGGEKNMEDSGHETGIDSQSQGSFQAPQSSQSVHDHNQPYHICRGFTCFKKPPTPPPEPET
Excerpt: For the yeast two-hybrid assay, the co-transformation method was used to analyze the protein interaction in yeast AH109 cells using SD/-Leu/-Trp selection plates.

Peptide 1: Synthetic human Band 3 peptide, amino acid 424-435, N-terminal biotin tag (Biotin-GGLLGEKTRNQM; UniProt P02730 424-435, looked up, fragment)
inhibition of invasion, 3H-hypoxanthine uptake assay [1]: moderate but significant levels of inhibition of invasion
effect on intraerythrocytic growth of the parasite (3H-hypoxanthine uptake) [2]: mild reduction in 3H-hypoxanthine uptake

Human Band 3 peptide 6A (amino acid 807-826), synthetic with N-terminal biotin tag
IC50 values (50% inhibition in the parasite invasion of RBCs), 3H-hypoxanthine incorporation method [3]: 316 µM

GMPWLSATTVRSVTHANALT [Peptide 5A]
inhibition of invasion, visual counting assay [4]: significant levels of inhibition of invasion
inhibition of the invasion of Plasmodium falciparum malaria parasite into human erythrocytes in vitro [4]: inhibited the invasion
effect on intraerythrocytic growth of the parasite (3H-hypoxanthine uptake) [2]: mild reduction in 3H-hypoxanthine uptake

DRILLLFKPPKYHPDVPYVK [Peptide 6A, Synthetic human Band 3 peptide, amino acid 807-826]
inhibition of invasion, 3H-hypoxanthine uptake assay [1]: strong inhibition
IC50 [1]: 316 ± 45 µM
inhibition of invasion, visual counting assay [4]: significant levels of inhibition of invasion
inhibition of the invasion of Plasmodium falciparum malaria parasite into human erythrocytes in vitro ([4]; listed as B36A): inhibited the invasion; also recorded: highest inhibition
effect on intraerythrocytic growth of the parasite (3H-hypoxanthine uptake) [2]: did not affect the intraerythrocytic growth of the parasite
binding to merozoite proteins, blot overlay [5]: specifically bind

5BC: Recombinant human Band 3 peptide, amino acid 731-761, expressed as GST or GAL4 DNA-BD fusion (SVTHANALTVMGKASTPGAAAQIQEVKEQRI; also: expressed as GST or GAL4 DNA-BD fusion) [Peptide 5BC]
binding to GST-MSP138 on beads (GST-MSP138; 32P-labeled 5BC 21, 42, 84, 168 μM): concentration-dependent manner
Kd (GST-MSP138; 32P-labeled peptide, pH 7.4, 25° C., 3.5 h, C-terminal truncated GST-MSP138): 67 µM

SVTHANALTVMGKASTPGAA [Peptide 5B, Synthetic human Band 3 peptide, amino acid 731-750]
inhibition of invasion, 3H-hypoxanthine uptake assay [1]: moderate but significant levels of inhibition of invasion
inhibition of invasion, visual counting assay [4]: significant levels of inhibition of invasion
inhibition of the invasion of Plasmodium falciparum malaria parasite into human erythrocytes in vitro [4]: inhibited the invasion
effect on intraerythrocytic growth of the parasite (3H-hypoxanthine uptake) [2]: did not affect the intraerythrocytic growth of the parasite

2: Synthetic human Band 3 peptide, amino acid 477-491, N-terminal biotin tag (Biotin-SFCETNGLEYIVGRV; UniProt P02730 477-491, looked up, fragment) [Peptide 2]
binding to RBC ghost proteins, blot overlay (human RBC ghost proteins): non-specific bindings
effect on intraerythrocytic growth of the parasite (3H-hypoxanthine uptake) [2]: mild reduction in 3H-hypoxanthine uptake
binding to merozoite proteins, blot overlay [5]: did not show significant binding

3A: Synthetic human Band 3 peptide, amino acid 538-557, N-terminal biotin tag (Biotin-SKLIKIFQDHPLQKTYNYNV; UniProt P02730 538-557, looked up, fragment) [Peptide 3A]
binding to RBC ghost proteins, blot overlay (human RBC ghost proteins): non-specific bindings
binding to merozoite proteins, blot overlay [5]: did not show significant binding

4A: Synthetic human Band 3 peptide, amino acid 623-642, N-terminal biotin tag (Biotin-FIQDTYTQKLSVPDGFKVSN; UniProt P02730 623-642, looked up, fragment) [Peptide 4A]
binding to RBC ghost proteins, blot overlay (human RBC ghost proteins): non-specific bindings
binding to merozoite proteins, blot overlay [5]: did not show significant binding

Human Band 3 peptide 5C (amino acid 742-761), synthetic with N-terminal biotin tag
IC50 values (50% inhibition in the parasite invasion of RBCs), 3H-hypoxanthine incorporation method [3]: 591 µM

GKASTPGAAAQIQEVKEQRI [Peptide 5C, Synthetic human Band 3 peptide, amino acid 742-761]
inhibition of invasion, 3H-hypoxanthine uptake assay [1]: moderate but significant levels of inhibition of invasion
IC50 [1]: 591 ± 131 µM
inhibition of invasion, visual counting assay [4]: significant levels of inhibition of invasion
inhibition of the invasion of Plasmodium falciparum malaria parasite into human erythrocytes in vitro ([4]; listed as B35C): inhibited the invasion; also recorded: highest inhibition
effect on intraerythrocytic growth of the parasite (3H-hypoxanthine uptake) [2]: did not affect the intraerythrocytic growth of the parasite
binding to merozoite proteins, blot overlay [5]: specifically bind

B1: GAL4 DNA-BD fusion of Band 3 peptide 5BC (amino acids 731-761) in pGBKT7 (other)
peptide: SVTHANALTVMGKASTPGAAAQIQEVKEQRI
modifications: not fully specified (N-terminus); also: GAL4 DNA-BD fusion in pGBKT7, fused part not given here
binding result [6]: no binding

B2: GAL4 DNA-BD fusion of Band 3 peptide 6AB (amino acids 807-842) in pGBKT7 (other)
peptide: DRILLLFKPPKYHPDVPYVKRVKTWRMHLFTGIQII
modifications: not fully specified (N-terminus); also: GAL4 DNA-BD fusion in pGBKT7, fused part not given here
binding result [6]: no binding

B3: GAL4 DNA-BD fusion of Band 3 peptide 5ABC (amino acids 720-761) in pGBKT7 (other)
peptide: GMPWLSATTVRSVTHANALTVMGKASTPGAAAQIQEVKEQRI
modifications: not fully specified (N-terminus); also: GAL4 DNA-BD fusion in pGBKT7, fused part not given here
notes: also called BD-5ABC; pGBKT7-5ABC
binding result [6]: no binding
